Experimental findings from the METLIN SMRT retention time set (Domingo-Almenara et al. 2019) are described below.

Molecules are shown by their SMILES.

This series in a line: gradient 5% acetonitrile 3 min, to 50% in 2 min, to 85% in 15 min, held 3 min, 100 µL/min. Conditions: column: Zorbax Extend-C18 2.1 x 50 mm; eluents: water / acetonitrile, 0.1% formic acid. In a few lines: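 Over 3 months, pure standards in mixtures of ~100 molecules were run by HPLC coupled to a quadrupole time-of-flight mass spectrometer in positive and negative ionization mode. The column was a Zorbax Extend-C18 (2.1 × 50 mm, 1.8 μm) at 100 μL/min, eluted with water and acetonitrile each holding 0.1% formic acid, with 40 μL dead and 900 μL dwell volumes. Retention time was determined from adduct peaks chosen by software and checked manually.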
Turning to `CC1=C(c2ccc(C(C)C)cc2)S(=O)(=O)N=C1N1CCC(NC(=O)C2CCOC2)CC1` (stereo unspecified), the RP-LC retention time amounted to 788 s.
For `CC(C)n1c(=O)c(Nc2cc(F)cc(F)c2)nc2ccncc21` the value was 719 s; for `CCCc1ccc(S(=O)(=O)N2CCCC2c2nc(-c3cccc(F)c3)no2)cc1` (stereo unspecified), 1270 s.
Molecule `O=C(NCc1cccc(Oc2ccc(F)cc2)c1)c1cccnc1` came in with an RP-LC retention time of 588 s.
For `O=C(C1CC1)N1CCC(N(Cc2cccnc2)C2CCOCC2)CC1` the value was 550 s; for `CCCCN1C(=O)C(CC(=O)NCC(C)C)Sc2ncccc21` (stereo unspecified), 784 s.
In the case of `CC1(CNC(=O)NCc2cccc(F)c2)CCOCC1` it was 684 s.
`COc1cc(NC(=O)c2csc(-c3cn(C)c4ncccc34)n2)cc(OC)c1`: the RP-LC retention time amounted to 1010 s.
In the case of `CCOc1ccc(N2C=C(C#N)S(=O)(=O)c3ccccc32)cc1` it was 943 s; in that of `CCc1ccc(-n2nc(C)c3c(C(F)(F)F)cc(OCC(=O)N4CCCC4)nc32)cc1`, 1220 s.
In the case of `COc1ccc(CNC(=O)C2CCN(c3cnc4nccnc4c3)CC2)cc1OC` it was 633 s; in that of `O=C(NCc1cccs1)C1CCN(c2nnc3ccccn23)CC1`, 528 s; in that of `CCOC(=O)c1noc2nc(C)nc(NCC3CCN(Cc4cccc(Cl)c4)CC3)c12`, 696 s.
For `O=C(Nc1ccccc1)C1CCN(C(=O)c2ncn3c2COC(c2ccccc2)C3)CC1` (stereo unspecified) the value was 752 s; for `Cc1nc2cc(-c3noc(-c4ccc5c(c4)OCO5)n3)ccc2n(C)c1=O`, 920 s.
As for `CCc1nc2c(NC(=O)c3cccc(Br)c3)cccn2n1`, the RP-LC retention time was determined as 951 s.
For `CCOC(=O)c1sc2nc(NC(=O)Cc3ccccc3)sc2c1C` the value was 1020 s; for `O=C1CCCCC(Cc2cccnc2)(C(=O)NCc2ccc3c(c2)OCO3)N1` (stereo unspecified), 591 s; for `CCSCCOC(=O)C1=C(C)NC2=C(C(=O)CCC2)C1c1ccc(C(=O)OC)cc1` (stereo unspecified), 892 s.
In the case of `Cc1cc(NC(=O)CSc2nnc(CCc3nc4ccccc4[nH]3)o2)no1` it was 553 s; in that of `CCOc1ccc(CC(=O)N2CCCn3nc(-c4cccc(C)c4)cc3C2)cc1`, 968 s; in that of `O=C(NC[C@H](O)CO)c1ccncc1Nc1ccc(I)cc1F`, 671 s.
In the case of `CCN1C(=O)COc2ccc(-c3noc(C4CC(=O)N(c5ccccc5)C4)n3)cc21` (stereo unspecified) it was 879 s; in that of `Cc1ccc(-c2nc3nc(C)cc(NC(C)C)n3n2)cc1`, 782 s; in that of `CC(C)CC(=O)NCCC1CCN(C(=O)Nc2cc(F)ccc2F)CC1`, 1190 s.
`Cc1cc(-c2nnc(-c3ccco3)o2)c(C)n1CC(=O)NCc1ccc(F)cc1Cl` returned an RP-LC retention time of 881 s.
`COC(=O)C1=CN(c2ccc(F)cc2)c2cc(F)ccc2S1(=O)=O` had an RP-LC retention time of 789 s.
As for `CCCNC(=O)c1ccc(-c2nc3cc(NS(=O)(=O)c4cccs4)ccc3n2C)cc1`, the RP-LC retention time was 662 s.
`CCC(C)NC(=O)N1CCC2(CC1)Nc1cc(F)ccc1-n1cccc12` (stereo unspecified): the RP-LC retention time was determined as 954 s.
For `CCC(=O)N1CCc2cc(N3CC(C(=O)NC(C)c4ccccn4)CC3=O)ccc21` (stereo unspecified) the value was 585 s.
In turn, `CC(C)NC(=O)Cc1cccn1-c1cccc(Cl)c1` had an RP-LC retention time of 870 s.
For `CCOCCCNC(=O)N1CCc2cc(-c3ccc(C(=O)N4CCOCC4)cc3)ccc21` the value was 608 s; for `O=C(Nc1ccc2ncnc(N3CCCCC3)c2c1)c1cccs1`, 670 s; for `O=C(c1ccccn1)N1CCCn2cc(-c3ccccc3)nc21`, 620 s.
`Cc1cccc(C)c1NC(=O)N1CCCC1c1nncn1C1CCCC1` (stereo unspecified) came in with an RP-LC retention time of 722 s.
Take `COc1ccc(NC(=O)CCc2cccc3[nH]ccc23)c(OC)c1`: the RP-LC retention time turned out to be 831 s.
For `COc1cc(OC)c(NC(=O)NC2CCN(c3nc4ccccc4n(C)c3=O)CC2)cc1Cl` the value was 945 s; for `COCCNS(=O)(=O)c1cc(-c2nc(CC(C)C)cs2)cs1`, 1010 s.
In turn, `CN(C)c1cccc(C(=O)NCc2[nH]nc3ccccc23)c1` displayed an RP-LC retention time of 580 s.
For `COc1cccc2c1OC1(C)CC2C(S(=O)(=O)c2ccc(C(C)C)cc2)C(=O)N1C` (stereo unspecified), the RP-LC retention time amounted to 1040 s.
The molecule `Cc1cccc(-c2nc(Cc3noc(COc4ccccc4)n3)c(C)o2)c1` displayed an RP-LC retention time of 1170 s.
Molecule `O=C1CN(S(=O)(=O)c2ccccc2F)CC2(CCCCC2)N1C1CCCC1` yielded an RP-LC retention time of 1140 s.
In the case of `O=C(O)C1CCN(C(=O)CCc2c[nH]c3ccccc23)CC1` it was 662 s.
For `COCCNC(=O)C1CCN(S(C)(=O)=O)c2cc(Cl)ccc2O1` (stereo unspecified) the value was 710 s; for `CSc1ccc(CNC(=O)C2CCCN(c3nc4c(s3)c(C)nn4-c3ccc(C)cc3)C2)cc1` (stereo unspecified), 1210 s.
For `COc1cccc(C(=O)N2CCC3(C2)C(=O)N(C)c2ccccc23)c1OC` (stereo unspecified) the value was 749 s; for `CC(=O)c1ccc(N2C(=O)Cn3cccc3C2C(=O)NC2CCC(C)CC2)cc1` (stereo unspecified), 869 s; for `Cc1nc(CSc2ccc(-c3cccc([N+](=O)[O-])c3)nn2)cs1`, 817 s.
`Cc1ccc(C)c(NC(=O)N2CCCC(C)(C(=O)NCc3ccccc3C)C2)c1` (stereo unspecified): the RP-LC retention time amounted to 1020 s.
Take `CCC(=O)NCc1nc2c(n1CC)CN(C(=O)c1ccc(C(F)(F)F)cc1)CC2`: the RP-LC retention time came out at 614 s.
For `CCc1nnc2ccc(NC3CC3)nn12` the value was 657 s.
For `CCOc1cccc(C2c3[nH]c4ccccc4c3CCN2C(=O)COC)c1` (stereo unspecified) the value was 983 s.
For `C[C@@H]1CCN(C(=O)C(CCCN=C(N)N)NS(=O)(=O)c2cccc3c2NC[C@H](C)C3)C(C(=O)O)C1` (stereo partly specified) the value was 767 s; for `COc1cccc(-c2ccc(=O)n(CCc3nc(-c4cccc(F)c4)no3)n2)c1`, 970 s.
In turn, `CN1CCN(CCCNC(=O)c2ccc(NC(=O)C3=CSCCO3)cc2)CC1` had an RP-LC retention time of 876 s.
The molecule `Cc1ccnc(NC(=O)C2CCCN(c3cc(=O)n(C)c(=O)n3C)C2)c1` (stereo unspecified) registered an RP-LC retention time of 570 s.
In the case of `Cc1sc(-c2cc(C(F)(F)F)on2)cc1S(=O)(=O)NCc1ccccc1` it was 1110 s; in that of `c1cc(-c2noc(-c3ccsc3)n2)cc(N2CCCC2)n1`, 664 s.
Molecule `CCc1nn(CC)c(=O)c2cc(S(=O)(=O)N3CCC(Cc4ccccc4)CC3)cn12` returned an RP-LC retention time of 1140 s.
In the case of `Cc1ccc(CNC(=O)C2(C)CCN(S(=O)(=O)c3ccc(Br)cc3)CC2)cc1` it was 1030 s; in that of `CC(=O)N1CCC(C(=O)N2CCN(S(=O)(=O)c3ccc4c(c3)sc(=O)n4C(C)C)CC2)CC1`, 727 s; in that of `Cc1nnc2cc(N3CCN(C(=O)Nc4ccc(F)cc4F)CC3)cnn12`, 597 s.
In the case of `CC(C)(C)C1CCc2[nH]nc(C(N)=O)c2C1` (stereo unspecified) it was 745 s; in that of `c1ccc(-c2noc(COC3CCCN(C4CCOCC4)C3)n2)cc1` (stereo unspecified), 628 s.
In turn, `CN1C(=O)c2cc(C(=O)NCCCc3ccccc3)nn2CC1(C)C(=O)NCc1ccc(F)cc1` (stereo unspecified) displayed an RP-LC retention time of 813 s.
Turning to `CCN1CCN(C(=O)C2Cc3cc(S(=O)(=O)N4CCOCC4)ccc3N2C(C)=O)CC1` (stereo unspecified), the RP-LC retention time is 578 s.
Molecule `Cc1noc(-c2nn(C)c3c2CN(C(=O)c2cc(F)ccc2F)CC3)n1` displayed an RP-LC retention time of 737 s.
In the case of `O=C(Nc1ccc(Br)cc1)C1CCN(c2cc(N3CCCC3)ncn2)CC1` it was 721 s.
In the case of `O=C(Cn1c(-c2ccc(F)cc2)nc2ccccc21)N1CCOCC1` it was 592 s; in that of `O=C1NCCCn2cc(S(=O)(=O)Nc3ccc(F)cc3)cc21`, 639 s.
In turn, `Cc1cc(C)c2nc(Nc3nccc(C)n3)nc(C)c2c1` returned an RP-LC retention time of 640 s.
With `COc1cccc(-n2c(=O)c(C(=O)Nc3ccc(F)cc3)c(O)c3cccnc32)c1`, the RP-LC retention time was 1210 s.
Turning to `O=C([C@@H]1C[C@H](Oc2ccccc2)CN1C(=O)CCc1nc2ccccc2s1)N1CCCC1`, the RP-LC retention time worked out at 815 s.
In the case of `CC(C)(C)c1csc(-c2csc(S(=O)(=O)Nc3ccccc3F)c2)n1` it was 1120 s; in that of `CCC(C)NC(=O)c1cc(-c2ccc(F)cc2)cn1C` (stereo unspecified), 981 s; in that of `CC(OC(=O)Nc1cccc(Cl)c1)C(=O)O` (stereo unspecified), 809 s.
For `CC1CCC2(CC1)NC(=O)N(CC(=O)NCc1ccc(F)cc1)C2=O` (stereo unspecified) the value was 801 s.
For `COc1cc2c(cc1OC)C(C(=O)NCCCN1CCC(C)CC1)C1c3ccccc3CCN1C2=O` (stereo unspecified) the value was 624 s; for `COc1ccc(NC(=O)CSc2cc(N3CCN(c4ccccc4F)CC3)ncn2)cc1`, 1010 s.
For `COc1ccc(NC(=O)NCCCn2c(C(F)(F)F)nc3cccnc32)cc1OC`, the RP-LC retention time turned out to be 708 s.
In the case of `COc1ccc(C(=O)N2[C@H]3CC[C@@H]2c2cnc(C)nc2C3)cn1` it was 622 s.
